The nature of the data set: Diffusion of a fluorescent probe in swollen gelatin gel (FRAP). The class given is physicochemical. Conditions: coating thickness 60 μm; diffusion coefficient 9×10^ m^2s^−1. From the text: To assess the stability of DTPA[Gd(III)] in the gelatin coating, the diffusion of a fluorescence probe in gelatin was studied by the technique of fluorescence recovery after photobleaching (FRAP). The instrument and data analysis scheme are described in Kim, S. H. and Yu, H., J. Phys. Chem. 1992, 96, 4034, which is hereby fully incorporated by reference. Fluorescein was used as the fluorescence probe due, in part, to its molecular size being roughly the same as that of DTPA[Gd(III)].
The focus of the study was to examine the possible retardation effects of gelatin concentration and cross-link density on the diffusion, which was determined at room temperature, i.e., below the gel point of gelatin. The diffusion of fluorescein probe slows down with the increase of gelatin concentration. The diffusion coefficient decreases from 1.5×10^−10 to 9×10^−12 m^2s^−1 when the concentration of gelatin increases from 9% to 40%. […] Accordingly, the probe diffusion is more likely controlled by the concentration of gelatin rather than the cross-link density. On the other hand, the cross-link density may determine the swelling ratio of gelatin, i.e., the concentration of gelatin in aqueous solution. […]

As for `O=C(O)CN(CCN(CC(=O)O)CC(=O)O)CCN(CC(=O)O)CC(=O)O` [DTPA, diethylenetriaminepentaacetic acid], the “time to diffuse out of the gelatin coating” value was “about 67 seconds”.

The record behind these values is patent US20040253292A1, “MR-signal emitting coatings” (Wisconsin Alumni Research Foundation, priority 2003, published 2004).
